Ends that are not written are not given here. Peptide text beside a SMILES is read from it.
Assays:
LDLR [1] = biological target: T1, LDLR (Homo sapiens, UniProt P01130); experiment: LDLR binding (SPR), high surfactant preparation
Method: The table shown in FIG. 23 illustrates LDLR binding data (SPR), using a high surfactant preparation. Recombinant LDLR was diluted in 10 mM acetate buffer pH 4.5 and amine coupled to a CM5 chip at 1000 RU. Peptides were diluted to 5 μM in running buffer (HBS-P+, 1 mM CaCl2) and serially diluted 1:3 for 5 total concentrations. Peptides were exposed to immobilized LDLR at a rate of […] for 120 seconds. Between cycles, the chip surface was regenerated with 3 injections of 50 mM NaOH/100 mM EDTA. Multi-Cycle Kinetics was performed on a Biacore Insight Evaluation Software and binding kinetics were analyzed with a 1:1 binding model.
Target sequence in this assay (P01130 22-860): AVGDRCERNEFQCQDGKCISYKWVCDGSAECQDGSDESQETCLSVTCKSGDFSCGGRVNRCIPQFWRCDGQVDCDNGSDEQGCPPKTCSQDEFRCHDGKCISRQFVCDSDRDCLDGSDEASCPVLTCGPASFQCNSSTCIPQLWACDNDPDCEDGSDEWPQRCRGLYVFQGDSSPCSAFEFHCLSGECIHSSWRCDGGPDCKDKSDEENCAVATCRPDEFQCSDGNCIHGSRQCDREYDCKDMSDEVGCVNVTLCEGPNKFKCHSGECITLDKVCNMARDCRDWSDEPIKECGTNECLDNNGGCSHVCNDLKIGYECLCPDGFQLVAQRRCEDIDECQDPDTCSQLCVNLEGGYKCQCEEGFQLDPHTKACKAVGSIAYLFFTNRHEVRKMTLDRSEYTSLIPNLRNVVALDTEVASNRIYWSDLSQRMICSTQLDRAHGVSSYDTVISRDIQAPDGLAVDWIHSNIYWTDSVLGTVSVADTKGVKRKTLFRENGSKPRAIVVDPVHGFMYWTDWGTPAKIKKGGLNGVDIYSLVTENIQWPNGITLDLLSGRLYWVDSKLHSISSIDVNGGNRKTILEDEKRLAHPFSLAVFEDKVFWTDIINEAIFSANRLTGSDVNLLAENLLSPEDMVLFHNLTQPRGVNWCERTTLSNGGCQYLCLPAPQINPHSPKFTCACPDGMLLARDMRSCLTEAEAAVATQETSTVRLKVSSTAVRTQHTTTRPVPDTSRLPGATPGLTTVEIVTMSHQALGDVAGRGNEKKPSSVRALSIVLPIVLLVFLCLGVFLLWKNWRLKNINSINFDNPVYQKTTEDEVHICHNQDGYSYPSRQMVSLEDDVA

ARPE-19 cells [2] = experiment: ARPE-19 cell viability assay (Cell Titer Glo); assay type: cell-based, human; details: 100 μM peptide, 1.5 hours
Method: ARPE-19 cells were seeded in 96-well plates at 25,000 cells/well and allowed to adhere to the plate surface for at least 24 hours. Peptides were diluted in serum-free DMEM: F12 to a final concentration of 100 μM. Cells were washed, then incubated in 100 μM peptide solution for 1.5 hours at 37° C. Plates were brought to room temperature for 30 minutes, then washed with DPBS. Cells were incubated in a 1:1 mixture of DPBS and Cell Titer Glo 2.0 Reagent for 10 minutes at room temperature, then cell luminescence was read on a plate reader. Viability values were background corrected, and 0% viability is determined by luminescence values of cells treated with 1% Triton-X-100. Data are presented as mean+SD over two separate runs.

LDLR [3] = biological target: T1, LDLR; experiment: KD (µM)
From the text: First copying reader's note: Left of three side-by-side panels of FIG. 23; the KD cells hold value ± error together. Where the first naming reader finds the target: description_of_the_figure: FIG. 23 is a table showing the binding kinetics results of LDLR binding assays (SPR)
Target sequence in this assay (P01130 22-860 limits assumed): as the sequence (P01130 22-860) above

ARPE-19 cells [4] = experiment: ARPE-19 cholesterol efflux; assay type: cell-based, human; details: ARPE-19, 20 μM peptide, 4 hours
Method: Fully confluent 96-well plates of ARPE-19 cells were treated for 1 hour in serum-free DMEM containing 10 mM methyl-β-cyclodextrin, 100 μM cholesterol, and 25 μM BODIPY cholesterol. Cells were then washed and incubated overnight in serum-free DMEM containing 1 μM GW3965, 2 μg/mL ACAT inhibitor, and 0.2% BSA (LXR Agonist treated), or serum free DMEM containing 2 μg/mL ACAT inhibitor, and 0.2% BSA (Control). Cells were washed and incubated with 20 μM peptides diluted in serum-free Fluorobrite DMEM for 4 hours at 37° C. Media was transferred to a new 96-well plate and fresh serum-free Fluorobrite DMEM was placed on the cells. Media and cellular fluorescence were read on a Promega GloMax at 475 nm excitation, 500-550 emission. Fluorescence values were background corrected from no treatment conditions and percent efflux was calculated by the following equation: % efflux=(Media Fluorescence values)/(Media+Cell Fluorescence values). Data are presented as mean+SD over two runs per peptide.

[5] = key assays (summary statement on homologous variants)
[6] = high surfactant preparation (HBS-P+), 1:1 binding model, read-out: binding KD to LDLR

| Kd (LDLR [1]; [6]) | Compound | ARPE-19 cell viability (ARPE-19 cells [2]) | cholesterol efflux following LXR agonist treatment (ARPE-19 cells [4]) | activity in key assays of polypeptides homologous to T-087 [5] | further results |
| --- | --- | --- | --- | --- | --- |
| < 10 µM | CC(C)C[C@H](NC(=O)[C@H](CC(=O)O)NC(=O)[C@H](CCCCN)NC(=O)CNC(=O)[C@H](Cc1ccc(O)cc1)NC(=O)[C@H](CC(=O)O)NC(=O)[C@@H](NC(=O)[C@@H](NC(=O)[C@@H](NC(=O)[C@H](CCC(N)=O)NC(=O)[C@H](CCCNC(=N)N)NC(=O)[C@H](Cc1ccc(O)cc1)NC(=O)[C@H](CCC(N)=O)NC(=O)[C@H](CO)NC(=O)[C@@H](NC(=O)[C@H](CC(C)C)NC(=O)[C@H](CO)NC(=O)[C@H](CCCNC(=N)N)NC(=O)[C@H](CC(C)C)NC(=O)[C@H](CC(C)C)NC(=O)[C@H](CCCNC(=N)N)NC(=O)[C@H](CCCCN)NC(=O)[C@H](CCCNC(=N)N)NC(=O)[C@H](CC(C)C)NC(=O)[C@H](CCCCN)NC(=O)[C@H](CCCNC(=N)N)NC(=O)[C@H](CC(C)C)NC(=O)[C@@H](N)Cc1c[nH]cn1)C(C)C)[C@@H](C)O)C(C)C)[C@@H](C)O)C(=O)O [T-110] (H-HLRKLRKRLLRSLVSQYRQTVTDYGKDL-OH) | substantial change in viability |  |  |  |
|  | DHINKVQRKVTHEIERLFLGQSTEELRVRLASHLRKLRKRLLRDADDLQKRLAVYQA [T-115] | substantial change in viability |  |  | Kd (LDLR [1]): < 10 µM |
| < 10 µM | CC(C)C[C@H](NC(=O)[C@H](CCCNC(=N)N)NC(=O)[C@H](CC(=O)O)NC(=O)[C@H](Cc1ccc(O)cc1)NC(=O)[C@H](CC(C)C)NC(=O)[C@H](CCCCN)NC(=O)[C@H](CC(=O)O)NC(=O)CNC(=O)[C@H](CC(=O)O)NC(=O)[C@H](CCCNC(=N)N)NC(=O)[C@H](CC(C)C)NC(=O)[C@H](CC(C)C)NC(=O)[C@H](CCCNC(=N)N)NC(=O)[C@H](CCCCN)NC(=O)[C@H](CCCNC(=N)N)NC(=O)[C@H](CC(C)C)NC(=O)[C@H](CCCCN)NC(=O)[C@H](CCCNC(=N)N)NC(=O)[C@H](CC(C)C)NC(=O)[C@@H](N)Cc1c[nH]cn1)C(=O)N[C@@H](C)C(=O)N[C@@H](CCC(=O)O)C(=O)N[C@@H](Cc1ccc(O)cc1)C(=O)N[C@@H](Cc1ccc(O)cc1)C(=O)N[C@@H](C)C(=O)N[C@@H](CCCNC(=N)N)C(=O)N[C@@H](C)C(=O)N[C@@H](CCCCN)C(=O)N[C@@H](CCC(=O)O)C(=O)N[C@@H](C)C(=O)N[C@@H](Cc1ccccc1)C(=O)N[C@@H](CC(=O)O)C(=O)N[C@@H](CCCNC(=N)N)C(=O)O [T-062] (H-HLRKLRKRLLRDGDKLYDRLAEYYARAKEAFDR-OH) | substantial change in viability |  |  |  |
|  | CC(C)C[C@H](NC(=O)[C@H](CCCNC(=N)N)NC(=O)[C@H](CC(=O)O)NC(=O)[C@H](CCC(N)=O)NC(=O)[C@H](CC(C)C)NC(=O)[C@H](CCCCN)NC(=O)[C@H](CC(=O)O)NC(=O)[C@H](C)NC(=O)[C@H](CC(=O)O)NC(=O)[C@H](CCCNC(=N)N)NC(=O)[C@H](CC(C)C)NC(=O)[C@H](CC(C)C)NC(=O)[C@H](CCCNC(=N)N)NC(=O)[C@H](CCCCN)NC(=O)[C@H](CCCNC(=N)N)NC(=O)[C@H](CC(C)C)NC(=O)[C@H](CCCCN)NC(=O)[C@H](CCCNC(=N)N)NC(=O)[C@H](CC(C)C)NC(=O)[C@@H](N)Cc1c[nH]cn1)C(=O)N[C@@H](C)C(=O)N[C@@H](CCC(=O)O)C(=O)N[C@@H](Cc1ccc(O)cc1)C(=O)N[C@@H](CCC(N)=O)C(=O)N[C@@H](C)C(=O)N[C@@H](CCCNC(=N)N)C(=O)N[C@@H](C)C(=O)N[C@@H](CCCCN)C(=O)N[C@@H](CCC(=O)O)C(=O)N[C@@H](C)C(=O)N[C@@H](Cc1ccccc1)C(=O)N[C@@H](CC(=O)O)C(=O)N[C@@H](CCCNC(=N)N)C(=O)O [T-050] (H-HLRKLRKRLLRDADKLQDRLAEYQARAKEAFDR-OH; N-terminus and C-terminus assumed) |  |  |  | Kd (LDLR [3]): 528.5 ± 0.71 µM |
|  | T-172: variant of peptide T-087 (DAWERFRALFKELADYFA) |  | increased cholesterol efflux | sustained or improved activity |  |
|  | T-163: variant of peptide T-087 (DAWERFRALAKELADYFR) |  | increased cholesterol efflux | sustained or improved activity |  |
|  | VRGRLVQYRGEVQAMLGQSTEELRVRLASHLRKLRKRLLRDADDLQKRLAVYQA [T-069] | substantial change in viability |  |  | Kd (LDLR [1]): < 10 µM |
|  | T-161: variant of peptide T-087 (DAWERFRGLFKELADYFR) |  | increased cholesterol efflux | sustained or improved activity |  |
| < 10 µM | CSCC[C@H](NC(=O)[C@H](CC(C)C)NC(=O)[C@H](CC(=O)O)NC(=O)[C@H](CCCCN)NC(=O)CNC(=O)[C@H](Cc1ccc(O)cc1)NC(=O)[C@H](CC(=O)O)NC(=O)[C@@H](NC(=O)[C@@H](NC(=O)[C@@H](NC(=O)[C@H](CCC(N)=O)NC(=O)[C@H](Cc1ccccc1)NC(=O)[C@H](Cc1ccc(O)cc1)NC(=O)[C@H](CCC(N)=O)NC(=O)[C@H](CO)NC(=O)[C@@H](NC(=O)[C@H](CC(C)C)NC(=O)[C@H](CO)NC(=O)[C@H](CCCNC(=N)N)NC(=O)[C@H](CC(C)C)NC(=O)[C@H](CC(C)C)NC(=O)[C@H](CCCNC(=N)N)NC(=O)[C@H](CCCCN)NC(=O)[C@H](CCCNC(=N)N)NC(=O)[C@H](CC(C)C)NC(=O)[C@H](CCCCN)NC(=O)[C@H](CCCNC(=N)N)NC(=O)[C@H](CC(C)C)NC(=O)[C@H](Cc1c[nH]cn1)NC(=O)[C@H](CO)NC(=O)[C@H](C)NC(=O)[C@@H](N)CC(C)C)C(C)C)[C@@H](C)O)C(C)C)[C@@H](C)O)C(=O)O [T-065] (H-LASHLRKLRKRLLRSLVSQYFQTVTDYGKDLM-OH) | substantial change in viability |  |  |  |
| < 10 µM | CC(C)C[C@H](NC(=O)[C@H](CC(=O)O)NC(=O)[C@H](CCC(=O)O)NC(=O)CNC(=O)[C@H](Cc1ccc(O)cc1)NC(=O)[C@H](CC(=O)O)NC(=O)[C@@H](NC(=O)[C@@H](NC(=O)[C@@H](NC(=O)[C@H](CCC(N)=O)NC(=O)[C@H](CCCNC(=N)N)NC(=O)[C@H](Cc1ccc(O)cc1)NC(=O)[C@H](CCC(N)=O)NC(=O)[C@H](CO)NC(=O)[C@@H](NC(=O)[C@H](CC(C)C)NC(=O)[C@H](CO)NC(=O)[C@H](CCCNC(=N)N)NC(=O)[C@H](CC(C)C)NC(=O)[C@H](CC(C)C)NC(=O)[C@H](CCCNC(=N)N)NC(=O)[C@H](CCCCN)NC(=O)[C@@H](NC(=O)[C@H](CC(C)C)NC(=O)[C@H](CCCCN)NC(=O)[C@H](CCCNC(=N)N)NC(=O)[C@H](CC(C)C)NC(=O)[C@@H](N)Cc1c[nH]cn1)C(C)C)C(C)C)[C@@H](C)O)C(C)C)[C@@H](C)O)C(=O)O [T-111] (H-HLRKLVKRLLRSLVSQYRQTVTDYGEDL-OH) | substantial change in viability |  |  |  |
|  | CC(C)C[C@H](NC(=O)[C@H](C)NC(=O)[C@H](CCCNC(=N)N)NC(=O)[C@H](Cc1ccccc1)NC(=O)[C@H](CCC(=O)O)NC(=O)[C@H](CCCNC(=N)N)NC(=O)[C@@H](N)Cc1c[nH]c2ccccc12)C(=O)N[C@@H](Cc1ccccc1)C(=O)N[C@@H](CCCCN)C(=O)N[C@@H](CCC(=O)O)C(=O)N[C@@H](CC(C)C)C(=O)N[C@@H](C)C(=O)N[C@@H](CC(=O)O)C(=O)N[C@@H](Cc1ccc(O)cc1)C(=O)N[C@@H](Cc1ccccc1)C(=O)N[C@@H](CCCNC(=N)N)C(=O)N[C@@H](CC(=O)O)C(=O)N[C@@H](C)C(=O)O [T-085] (H-WREFRALFKELADYFRDA-OH) | substantial change in viability |  |  |  |
|  | T-152: variant of peptide T-087 (AAWERFRALFKELADYFR) |  | increased cholesterol efflux | sustained or improved activity |  |

— patent US20260115250A1, “METHODS OF TREATING AGE-RELATED MACULAR DEGENERATION” (Character Biosciences, Inc., priority 2022, published 2026)
